Test results published in patent publication US20250223300A1, “MACROCYCLIC COMPOUND AND PHARMACEUTICAL COMPOSITION AND USE THEREOF” (BETTA PHARMACEUTICALS CO., LTD, priority 2022, published 2025).

Key:
[1] = Metabolic stability of liver microsomes, rat; assay type: in vitro ADME; settings: NADPH, 0-45 min; for microsomal CLint: read-out: CLint(μL/min/mg protein) Rat
Procedure: (§1) The liver microsomes of human, rat, mouse and dog were used to study the metabolic stability of the compounds. The specific experimental steps are as follows: • (1) Add 40 μL MgCl2 and 306 μL PBS to each well of a 96-well plate, and then add 4 μL compound, with a final DMSO concentration of ≤0.5%. Set up a blank well without compound; • (2) Add 10 μL of 20 mg/mL liver microsomes to each well, incubate at 37° C. for 10 min; • (3) Add 40 μL NADPH working solution to each well to start the reaction, and set up a control well without NADPH; • (4) At 0, 5, 15, and 45 min after the start of the reaction, 50 μL of sample was taken out, the termination solution was added, and the mixture was shaken for 5 min. • (5) The samples were then centrifuged at 3,220 g for 10 min, and 50 μL of the supernatant was removed and was added 200 μL water for dilution and analysis by LC-MS/MS.
(§2) The in vitro intrinsic clearance (in vitro CLint, in μL/min/mg) was calculated from the in vitro half-life t1/2 (minutes) using the following equation (mean of replicates):
(§3) In vitro clearance rate=0.693/in vitro half-life t1/2×[incubation volume (μL)/(protein amount (mg)]

[2] = Metabolic stability of liver microsomes, mouse; assay type: in vitro ADME; settings: NADPH, 0-45 min; for microsomal CLint: read-out: CLint(μL/min/mg protein) Mouse
Procedure: as §1, §2, §3

[3] = Metabolic stability of liver microsomes, human; assay type: in vitro ADME; settings: NADPH, 0-45 min; for microsomal CLint: read-out: CLint(μL/min/mg protein) Human
Procedure: as §1, §2, §3

Ba/F3 (EGFR Del19/C797S) = Ba/F3 (EGFR Del19/C797S) (Homo sapiens, UniProt P00533, C797S, cells depend on it, form not given); assay: Cell proliferation inhibitory activity assay, Ba/F3 EGFR Del19/C797S; assay type: cell-based; settings: cell proliferation inhibition, 72 hours, luminescence; read-out: Ba/F3 cells overexpressing different EGFR mutations IC50 (nM) Del19/C797S
Procedure: (§4) Suspension cells Ba/F3 (EGFR. Dell9/T790M/C797S), Ba/F3 (EGFR L858R/T790M/C797S), Ba/F3 (EGFR Del19/C797S), and Ba/F3 (EGFR L858R/C797S) overexpressing different EGFR mutations were cultured in PRMI 1640 containing 10% FBS and 1% PS, and adherent cells A431 carrying EGFR WT were cultured in DMEM containing 10% FBS and 1% PS. The experimental steps for compound activity detection are as follows: • (1) Take adherent cells in the logarithmic growth phase, digest them with trypsin count them, and then inoculate them into a 96-well plate at a certain density. Incubate them overnight at 37° C. and 5% CO2 to allow them to adhere.
(§5) Y=minimum+([…])/(1+10^((Log IC50−X)*slope)); • X: logarithm of compound concentration; Y: cell survival inhibition rate.

[4] = target: Ba/F3 (EGFR L858R/T790M/C797S) (Homo sapiens, UniProt P00533, T790M/C797S/L858R, cells depend on it); assay: Cell proliferation inhibitory activity assay, Ba/F3 EGFR L858R/T790M/C797S; assay type: cell-based; settings: cell proliferation inhibition, 72 hours, luminescence; read-out: Ba/F3 cells overexpressing different EGFR mutations IC50 (nM) L858R/T790M/C797S
Procedure: as §4, §5

[5] = target: Ba/F3 cells overexpressing EGFR Del19/T790M/C797S (Homo sapiens, UniProt P00533, T790M/C797S, cells depend on it, form not given); assay: Cell proliferation inhibitory activity assay, Ba/F3 EGFR Del19/T790M/C797S; assay type: cell-based; settings: cell proliferation inhibition, 72 hours, luminescence; read-out: Ba/F3 cells overexpressing different EGFR mutations IC50 (nM) Del19/T790M/C797S
Procedure: as §4, §5

[6] = tested on: A431 cell carrying EGFR WT; assay: Cell proliferation inhibitory activity assay, A431; assay type: cell-based; settings: cell proliferation inhibition, 72 hours, luminescence
Procedure: as §4, §5

Ba/F3 (EGFR L858R/C797S) = Ba/F3 (EGFR L858R/C797S) (Homo sapiens, UniProt P00533, C797S/L858R, cells depend on it); assay: Cell proliferation inhibitory activity assay, Ba/F3 EGFR L858R/C797S; assay type: cell-based; settings: cell proliferation inhibition, 72 hours, luminescence; read-out: Ba/F3 cells overexpressing different EGFR mutations IC50 (nM) L858R/C797S
Procedure: as §4, §5

[7] = Metabolic stability of liver microsomes, dog; assay type: in vitro ADME; settings: NADPH, 0-45 min, read-out: CLint(μL/min/mg protein) Dog
Procedure: as §1, §2, §3

Pharmacokinetics in rats = assay type: in vivo, rat; settings: rat, po, male SD rats, 5 mg/kg orally by gavage, plasma; for Cmax: read-out: Cmax
Procedure: Male SD rats (200-300 g) were used for rat PK studies. Compounds were prepared and prepared immediately before use. Rats were administered intravenously or orally by gavage. Blood was collected from the rats through the orbital venous plexus, and 100 μL whole blood was collected into K2-EDTA tubes at each time point.
1 mg/kg was given intravenously, and whole blood was collected at 0.083, 0,25, $0.5, 1, 2, 4, 7, 24, 48, and 72 h after administration; 5 mg/kg were given orally by gavage, and whole blood was collected at 0.25, 0.5, 1, 2, 4, 7, 24, 48, and 72 h after administration in different batches, or the rats were killed at 4 and 24 h to obtain brains. The brain tissue samples were homogenized by adding 4 times the volume of buffer, and the whole blood and brain tissue samples were stored in a −80° C. refrigerator for later use. After the above whole blood and brain tissue samples were precipitated with acetonitrile for protein, the supernatant was taken and mixed with water in a ratio of 1:2, and 10 μL was taken for LC-MS/MS detection.

Pharmacokinetics in mice = assay type: in vivo, mouse; settings: mouse, po, female BALB/c mice, 5 mg/kg orally by gavage, plasma; for Cmax: read-out: Cmax
Procedure: Mouse PK studies were performed using female BALB/c mice (20-30 g). Compounds were prepared and prepared immediately before use. Mice were administered intravenously or orally by gavage. Blood was collected from the mouse orbital venous plexus, and 100 μL of whole blood was transferred to a K2-EDTA tube at each time point.
1 mg/kg was given intravenously, and whole blood was collected at 0.083, 0.25, 0.5, 1, 2, 4, 6 and 24 h after administration; 5 mg/kg were given orally by gavage, and whole blood was collected at 0.25, 0.5, 1, 2, 4, 6, 24 h after administration in different batches, or the mice were killed at 2, 4 and 6 h to obtain brains. Whole blood samples were centrifuged and plasma was separated; brain tissue samples were homogenized by adding 4 times the volume of buffer, and the plasma and brain tissue samples were stored in a −80° C. refrigerator for later use. After the above plasma and brain tissue samples were precipitated with acetonitrile for protein, the supernatant was taken and mixed with water in a 1:1 ratio, and 10 μL was taken for LC-MS/MS detection.

| Molecule | CLint(μL/min/mg protein) Rat [1] | CLint(μL/min/mg protein) Mouse [2] | CLint(μL/min/mg protein) Human [3] | GI50 (Ba/F3 (EGFR Del19/C797S)) | GI50 [4] | GI50 [5] | IC50 [6] | GI50 (Ba/F3 (EGFR L858R/C797S)) | microsomal CLint [1] | microsomal CLint [2] | microsomal CLint [3] | IC50 ([6]; Homo sapiens, A-431) | microsomal CLint [7] | AUC(0-t) (Pharmacokinetics in rats) | half-life (Pharmacokinetics in rats) | Cmax (Pharmacokinetics in rats) | AUC(0-t) (Pharmacokinetics in mice) | half-life (Pharmacokinetics in mice) | Cmax (Pharmacokinetics in mice) |
| --- | --- | --- | --- | --- | --- | --- | --- | --- | --- | --- | --- | --- | --- | --- | --- | --- | --- | --- | --- |
| 5^6-(9-(3- methoxy- propyl)-3,9- diazaspiro[5.5] undecan-3-yl)- 2^6-methyl-5^1H- 11-oxa-4-aza- 5(2,1)-benzo[d] imidazola- 1(34),2(2,4)- dipyridinacyclo- undecaphan- 3-one [Example 76] | 15.6 μL/min/mg protein | 23 μL/min/mg protein | 8 μL/min/mg protein | 0.09 nM | 0.2 nM | 0.14 nM | 586 nM | 0.34 nM |  |  |  |  |  |  |  |  |  |  |  |
| COCCCN1CCC2(CC1)CCN(c1ccc3nc4n(c3c1)C[C@H](C)CCCOc1ccncc1-c1cc(cc(C)n1)C(=O)N4)CC2 [Example 77, (R)-5^6-(9-(3-methoxypropyl)-3,9-diazaspiro [5.5]undecan-3-yl)-2^6,7-dimethyl-5^1H-11-oxa-4-aza-5(2,1)-benzo [d]imidazola-1(3,4),2(2,4)-dipyridinacyclo-undecaphan-3-one] |  |  |  | 0.23 nM | 0.36 nM | 0.36 nM |  | 0.18 nM | 6.7 µL/min/mg | 25.1 µL/min/mg | 17 µL/min/mg | 426 nM |  |  |  |  |  |  |  |
| Cc1cc2cc(n1)-c1cnccc1OCCC[C@@H](C)Cn1c(nc3ccc(N4CCC5(CCN(C)CC5)CC4)cc31)NC2=O [Example 3, (R)-2^6,7-dimethyl-5^6-(9-methyl-3,9-diazaspiro[5.5]undecan-3-yl)-5^1H-11-oxa-4-aza-5(2,1)-benzo[d]imidazola-1(3,4)2(2,4)-dipyridinacycloundecaphan-3-one] |  |  |  | 0.07 nM | 0.71 nM | 0.49 nM |  | 0.44 nM | 8 µL/min/mg | 23.1 µL/min/mg | 6.6 µL/min/mg | 759 nM | 7.9 µL/min/mg |  |  |  |  |  |  |
| Cc1cc2cc(n1)-c1cnccc1OCCCCCn1c(nc3ccc(N4CCC5(CCN(CC(C)(C)F)CC5)CC4)cc31)NC2=O [Example 78, 5^6-(9-(2-fluoro-2-methylpropyl)-3,9-diazaspiro [5.5]undecan-3-yl)-2^6-methyl-5^1H-11-oxa-4-aza-5(2,1)-benzo[d] imidazola-1(3,4),2(2,4)-dipyridinacyclo-undecaphan-3-one] |  |  |  | 3.3 nM | 12 nM | 5.9 nM |  | 21 nM | 12.2 µL/min/mg | 69.5 µL/min/mg | 4.3 µL/min/mg | > 3330 nM | 22 µL/min/mg |  |  |  |  |  |  |
| Cc1cc2cc(n1)-c1cnccc1OCCC[C@@H](C)Cn1c(nc3cc(C)c(N4CCC5(CC4)CCN(C4COC4)CC5)cc31)NC2=O [Example 12, (R)-2^6,5^5,7-trimethyl-5^6-(9-(oxetan-3-yl)-3,9-diazaspiro[5.5]undecan-3-yl)-5^1H-11-oxa-4-aza-5(2,1)-benzo[d]imidazola-1(3,4),2(2,4) -dipyridinacycloundecaphan-3-on] |  |  |  | 0.48 nM | 7.6 nM | 4.9 nM |  | 4.4 nM |  | 5.5 µL/min/mg | 24.9 µL/min/mg | 1000 nM | 10.4 µL/min/mg |  |  |  |  |  |  |

The remaining lines, values ahead:

| CLint(μL/min/mg protein) Rat [1] | CLint(μL/min/mg protein) Mouse [2] | CLint(μL/min/mg protein) Human [3] | GI50 (Ba/F3 (EGFR Del19/C797S)) | GI50 [4] | GI50 [5] | IC50 [6] | GI50 (Ba/F3 (EGFR L858R/C797S)) | microsomal CLint [1] | microsomal CLint [2] | microsomal CLint [3] | IC50 ([6]; Homo sapiens, A-431) | microsomal CLint [7] | AUC(0-t) (Pharmacokinetics in rats) | half-life (Pharmacokinetics in rats) | Cmax (Pharmacokinetics in rats) | AUC(0-t) (Pharmacokinetics in mice) | half-life (Pharmacokinetics in mice) | Cmax (Pharmacokinetics in mice) | Molecule |
| --- | --- | --- | --- | --- | --- | --- | --- | --- | --- | --- | --- | --- | --- | --- | --- | --- | --- | --- | --- |
|  |  |  | 0.2 nM | 2 nM | 0.96 nM |  | 1.3 nM | 7 µL/min/mg | 6.2 µL/min/mg | 4 µL/min/mg | > 3330 nM | 4.2 µL/min/mg |  |  |  |  |  |  | Cc1cc2cc(n1)-c1cnccc1OCCCCCn1c(nc3cc(C)c(N4CCC5(CCN(C)CC5)CC4)cc31)NC2=O [Example 13, 2^6,5^5-dimethyl-5^6-(9-methyl-3,9-diazaspiro[5.5]undecan-3-yl)-5^1H-11-oxa-4-aza-5(2,1)-benzo[d]imidazola-1(3,4),2(2,4)-dipyridinacycloundecaphan-3-one] |
|  |  |  | 0.2 nM | 1.1 nM | 0.2 nM |  | 0.8 nM | 5.6 µL/min/mg |  | 26.3 µL/min/mg | 274 nM | 24 µL/min/mg | 2590 ng·h/mL | 27.5 h | 165 ng/mL | 2090 ng·h/mL | 5.28 h | 181 ng/mL | Cc1cc2cc(n1)-c1cnccc1OCCC[C@@H](C)Cn1c(nc3ccc(N4CCC5(CC4)CCN(C4COC4)CC5)cc31)NC2=O [Example 4] |
|  |  |  | 0.45 nM | 3.7 nM | 2.4 nM |  | 5.7 nM | 23.3 µL/min/mg | 8.93 µL/min/mg | 4.82 µL/min/mg |  |  |  |  |  |  |  |  | Cc1cc2cc(n1)-c1cnccc1OCCCCCn1c(nc3cc(C)c(N4CCC5(CCN(CCF)CC5)CC4)cc31)NC2=O [Example 59, 5^6-(9-(2-fluoroethyl)-3,9-diazaspiro[5.5]undecan-3-yl)-2^6,5^5-dimethyl-5^1H-11-oxa-4-aza-5(2,1)-benzo [d]imidazola-1(3,4),2(2,4)-dipyridinacyclo-undecaphan-3-one] |
|  |  |  | 0.38 nM | 4.1 nM | 2.1 nM |  | 2.1 nM | 2.9 µL/min/mg |  | 41.5 µL/min/mg | 403 nM | 20.6 µL/min/mg | 1700 ng·h/mL | 17.2 h | 106 ng/mL | 1140 ng·h/mL | 21.5 h | 92.4 ng/mL | Cc1cc2cc(n1)-c1cnccc1OCCC[C@@H](C)Cn1c(nc3cc(F)c(N4CCC5(CC4)CCN(C4COC4)CC5)cc31)NC2=O [Example 6, (R)-5^5-fluoro-2^6,7-dimethyl-5^6-(9-(oxetan-3-yl)-3,9-diazaspiro[5.5]undecan-3-yl)-5^1H-11-oxa-4-aza-3(2.1)-benzo[d]imidazola-1(3,4),2(2,4)-dipyridinacycloundecaphan-3-one] |
